Test results published in patent US7727736B2, “Soluble phospholipids for use in clotting factor assays” (The University of North Carolina at Chapel Hill, priority 2003, dated 2010).

What was measured:
FXa [1] = molecular target: T1, FXa (Homo sapiens, UniProt P00742); conditions: equilibrium dialysis; cited from earlier work
factor IXa = molecular target: T2, factor IXa (Homo sapiens, UniProt P00740); test: Binding of C6PS to Factor IXa detected by intrinsic fluorescence; conditions: 0.20 μM factor IXa, 5 mM calcium, 22° C., single binding site model; read-out: stoichiometric Kd of C6PS binding to factor IXa
T2 construct: intrinsic tryptophan fluorescence of factor IXa
T2 sequence (P00740 47-191 limits assumed): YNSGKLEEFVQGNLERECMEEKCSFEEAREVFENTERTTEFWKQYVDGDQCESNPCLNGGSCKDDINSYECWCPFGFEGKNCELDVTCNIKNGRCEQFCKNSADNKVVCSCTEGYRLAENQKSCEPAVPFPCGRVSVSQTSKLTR
T2 sequence (P00740 227-461 limits assumed): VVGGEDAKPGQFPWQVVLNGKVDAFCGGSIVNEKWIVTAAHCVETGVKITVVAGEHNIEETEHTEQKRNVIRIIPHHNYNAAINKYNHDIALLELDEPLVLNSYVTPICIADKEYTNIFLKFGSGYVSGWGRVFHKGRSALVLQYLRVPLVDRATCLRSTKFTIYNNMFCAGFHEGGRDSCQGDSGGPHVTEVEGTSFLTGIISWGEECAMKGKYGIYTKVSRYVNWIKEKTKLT
Method: Integrated intrinsic fluorescence of 0.20 μM factor IXa in 50 mM Tris, 150 mM NaCl, 5 mM CaCl2, and 0.6% PEG, pH 7.5 was measured as a function of C6PS concentration at 22° C. to follow C6PS binding.

FXa [2] = molecular target: T1, FXa; test: Native gel electrophoresis (Ferguson analysis), C6PS bound to FXa; type: binding; set-up: Human prothrombin and factor Xa; purchased Hematologic Technologies Inc. (Essex Junction, Vt.); conditions: 400 μM C6PS
Method: Native Gel Electrophoresis. This method has been used to document the association of blood coagulation proteins in solution (Majumder, et al. (2002) supra; Majumder, et al. (2003) supra). A mixture of 1 nM FXa and 1 nM FVa was incubated at 37° C. for 2 minutes in the presence and absence of 400 μM C6PS and the two samples were run together with known marker proteins (270 kiloDalton-14.2 kiloDalton; SIGMA, St. Louis, Mo.) on five gels (5, 6, 6.5, 7, and 8% total acrylamide with bisacrylamide/acrylamide being 1/29 in all cases) in a BIORAD® MINI-PROTEAN® II minigel apparatus (BIORAD® Corp., Hercules, Calif.) and stained with colloidal Coomassie blue (Mitra, et al. (1994) supra). FXa and FVa, at these same concentrations and in the presence of 400 μM C6PS, were run separately as controls. Protein retardation coefficients, which depend to a good approximation only on the hydrodynamic size and shape of the protein, were determined for both the marker and unknown proteins (Ferguson (1964) Metabolism 13:985-1002). A log-log plot of the retardation coefficient against the molecular weights of the marker proteins produced a linear curve from which the molecular weight of the FVa•FXa complex was determined from its measured retardation coefficient (Bryan (1977) Anal. Biochem. 78(2):513-9). […]

[3] = CMC of C6PS using ANS as fluorescent probe in the presence of factor IXa; type: physicochemical; conditions: 200 nM factor IXa, 5 mM calcium

T1 sequence (P00742 41-179 limits assumed): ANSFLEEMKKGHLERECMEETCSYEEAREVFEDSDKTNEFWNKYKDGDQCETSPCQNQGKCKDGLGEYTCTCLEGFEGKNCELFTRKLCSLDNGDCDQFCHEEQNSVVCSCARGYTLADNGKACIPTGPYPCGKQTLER
T1 sequence (P00742 235-488 limits assumed): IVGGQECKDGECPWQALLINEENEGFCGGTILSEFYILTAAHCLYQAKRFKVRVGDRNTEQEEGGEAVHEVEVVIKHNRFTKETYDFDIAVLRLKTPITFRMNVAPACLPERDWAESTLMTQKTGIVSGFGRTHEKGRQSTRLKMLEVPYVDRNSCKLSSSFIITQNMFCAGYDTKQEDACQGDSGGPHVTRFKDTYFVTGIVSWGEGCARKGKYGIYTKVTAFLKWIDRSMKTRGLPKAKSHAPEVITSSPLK

CCCCCC(=O)OC[C@H](COP(=O)(O)OC[C@H](N)C(=O)O)OC(=O)CCCCC [C6PS, 1,2-dicaproyl-sn-glycero-3-phospho-L-serine]
stoichiometry of C6PS binding to FXa at saturation (FXa [1]): 2 | Kd (factor IXa): ~1300 nM | molecules of C6PS bound to FXa from molecular mass (FXa [2]): 1.5 molecules | CMC of C6PS [3]: 950 µM
